# According to patent publication US20240050428A1 (Cullgen (Shanghai), Inc., priority 2020, published 2024):
# Where two headings read alike, the source gives them in different places.
# Columns and labels:
# MOLM-13 cells = experiment: Cell viability assay (CellTiter-Glo) in MOLM-13 cells, alone or with gilteritinib; format: cell-based; conditions: Homo sapiens, MOLM-13, 72 h, MOLM-13 cells, three days, CellTiter-Glo
# MV4;11 cells = experiment: Cell viability assay (CellTiter-Glo) in MV4;11 cells, alone or with gilteritinib; format: cell-based; conditions: Homo sapiens, MV4-11, 72 h, MV4;11 cells, three days, CellTiter-Glo, read-out: MV4
# [1] = compound alone (without gilteritinib), read-out: MOLM-13 IC50
# [2] = compound with gilteritinib 20 nM, read-out: MOLM-13 IC50 gilteritinib
# [3] = compound alone (without gilteritinib), 11 IC50
# [4] = compound with gilteritinib 10 nM, 11 IC50 gilteritinib
# [5] = with gilteritinib 20 nM, read-out: MOLM-13 IC50 gilteritinib
# [6] = with gilteritinib 10 nM, 11 IC50 gilteritinib
SMILES,IC50 (MOLM-13 cells; [1]),IC50 (MOLM-13 cells; [2]),IC50 (MV4;11 cells; [3]),IC50 (MV4;11 cells; [4]),IC50 (MOLM-13 cells; [5]),IC50 (MV4;11 cells; [6])
"O=C1CCC(N2C(=O)c3ccc(NCCC[C@H]4C[C@H](n5cc(-c6cnc7cc(C8CCOCC8)ccc7n6)cn5)C4)cc3C2=O)C(=O)N1 (stereo partly drawn) [GS-420, 2-(2,6-dioxopiperidin-3-yl)-5-((3-(trans-3-(4-(6-(tetrahydro-2H-pyran-4-yl)quinoxalin-2-yl)-1H-pyrazol-1-yl)cyclobutyl)propyl)amino)isoindoline-1,3-dione]",100 to 1000 nM,10 to 100 nM,100 to 1000 nM,10 to 100 nM,,
"CN1CCC(c2ccc3ncc(-c4cnn([C@H]5C[C@H](CCCNc6ccc7c(c6)C(=O)N(C6CCC(=O)NC6=O)C7=O)C5)c4)nc3c2)CC1 (stereo partly drawn) [GS-224, 2-(2,6-Dioxopiperidin-3-yl)-5-((3-(trans-3-(4-(7-(1-methylpiperidin-4-yl)quinoxalin-2-yl)-1H-pyrazol-1-yl)cyclobutyl)propyl)amino)isoindoline-1,3-dione]",100 to 1000 nM,,100 to 1000 nM,,< 10 nM,10 to 100 nM
"O=C(CN1CCCC(N2CCN(c3ccccn3)CC2)C1)NCc1ccc2c(c1)C(=O)N(C1CCC(=O)NC1=O)C2=O (stereo not drawn) [GS-359, N-((2-(2,6-Dioxopiperidin-3-yl)-1,3-dioxoisoindolin-5-yl)methyl)-2-(3-(4-(pyridin-2-yl)piperazin-1-yl)piperidin-1-yl)acetamide]",> 1000 nM,,> 1000 nM,,> 1000 nM,> 1000 nM
"O=C1CCC(N2C(=O)c3ccc(NC[C@H]4C[C@H](n5cc(-c6cccnn6)c(C6CC6)n5)C4)cc3C2=O)C(=O)N1 (stereo partly drawn) [GS-597, 5-(((trans-3-(3-Cyclopropyl-4-(pyridazin-3-yl)-1H-pyrazol-1-yl)cyclobutyl)methyl)amino)-2-(2,6-dioxopiperidin-3-yl)isoindoline-1,3-dione]",> 1000 nM,100 to 1000 nM,10 to 100 nM,> 1000 nM,,
"CN1CCN(c2ccnc(-c3cnn([C@H]4C[C@H](CCCNc5ccc6c(c5)C(=O)N(C5CCC(=O)NC5=O)C6=O)C4)c3)n2)CC1 (stereo partly drawn) [GS-423, 2-(2,6-dioxopiperidin-3-yl)-5-((3-(trans-3-(4-(4-(4-methylpiperazin-1-yl)pyrimidin-2-yl)-1H-pyrazol-1-yl)cyclobutyl)propyl)amino)isoindoline-1,3-dione]",100 to 1000 nM,10 to 100 nM,100 to 1000 nM,10 to 100 nM,,
"O=C1CCC(N2C(=O)c3ccc(NC[C@H]4C[C@H](n5nc(C6CC6)c6cnccc65)C4)cc3C2=O)C(=O)N1 (stereo partly drawn) [GS-474, 5-(((trans-3-(3-cyclopropyl-1H-pyrazolo[4,3-c]pyridin-1-yl)cyclobutyl)methyl)amino)-2-(2,6-dioxopiperidin-3-yl)isoindoline-1,3-dione]",> 1000 nM,> 1000 nM,> 1000 nM,> 1000 nM,,
"O=C1CCC(N2Cc3cc(OCCCCC(=O)N4CCC(n5cc(-c6cnc7ccccc7n6)cn5)CC4)ccc3C2=O)C(=O)N1 (stereo not drawn) [GS-484, 3-(1-oxo-5-((5-oxo-5-(4-(4-(quinoxalin-2-yl)-1H-pyrazol-1-yl)piperidin-1-yl)pentyl)oxy)isoindolin-2-yl)piperidine-2,6-dione]",100 to 1000 nM,100 to 1000 nM,> 1000 nM,100 to 1000 nM,,
"O=C1CCC(N2Cc3cc(Nc4ccnc(Nc5ccc6c(c5)CC(N5CCC(n7cc(-c8cnc9ccccc9n8)cn7)CC5)C6)n4)ccc3C2=O)C(=O)N1 (stereo not drawn) [GS-073, 3-(1-Oxo-5-((2-((2-(4-(4-(quinoxalin-2-yl)-1H-pyrazol-1-yl)piperidin-1-yl)-2,3-dihydro-1H-inden-5-yl)amino)pyrimidin-4-yl)amino)isoindolin-2-yl)piperidine-2,6-dione]",100 to 1000 nM,,100 to 1000 nM,,100 to 1000 nM,10 to 100 nM
"Cc1nn(CCCCCCNc2ccc3c(c2)C(=O)N(C2CCC(=O)NC2=O)C3=O)c(C)c1-c1cnccn1 (stereo not drawn) [GS-146, 5-((6-(3,5-Dimethyl-4-(pyrazin-2-yl)-1H-pyrazol-1-yl)hexyl)amino)-2-(2,6-dioxopiperidin-3-yl)isoindoline-1,3-dione]",100 to 1000 nM,,> 1000 nM,,10 to 100 nM,10 to 100 nM
"O=C1CCC(N2C(=O)c3ccc(NCCCCCCn4cc(-c5cnc6ccccc6n5)c(C5CC5)n4)cc3C2=O)C(=O)N1 (stereo not drawn) [GS-552, 5-((6-(3-Cyclopropyl-4-(quinoxalin-2-yl)-1H-pyrazol-1-yl)hexyl)amino)-2-(2,6-dioxopiperidin-3-yl)isoindoline-1,3-dione]",100 to 1000 nM,< 10 nM,100 to 1000 nM,10 to 100 nM,,
"O=C(CNc1cccc(N2CCC(n3cc(-c4cnc5ccccc5n4)cn3)CC2)c1)NCc1scc2c1CN(C1CCC(=O)NC1=O)C2=O (stereo not drawn) [GS-087, N-((5-(2,6-dioxopiperidin-3-yl)-4-oxo-5,6-dihydro-4H-thieno[3,4-c]pyrrol-1-yl)methyl)-2-((3-(4-(4-(quinoxalin-2-yl)-1H-pyrazol-1-yl)piperidin-1-yl)phenyl)amino)acetamide]",< 10 nM,,< 10 nM,,< 10 nM,< 10 nM
"O=C1CCC(N2C(=O)c3ccc(NCCC[C@H]4C[C@H](n5cc(-c6cccc(=O)[nH]6)cn5)C4)cc3C2=O)C(=O)N1 (stereo partly drawn) [GS-249, 2-(2,6-Dioxopiperidin-3-yl)-5-((3-(trans-3-(4-(6-oxo-1,6-dihydropyridin-2-yl)-1H-pyrazol-1-yl)cyclobutyl)propyl)amino)isoindoline-1,3-dione]",> 1000 nM,,100 to 1000 nM,,100 to 1000 nM,> 1000 nM

# Continued, values first:
IC50 (MOLM-13 cells; [1]),IC50 (MOLM-13 cells; [2]),IC50 (MV4;11 cells; [3]),IC50 (MV4;11 cells; [4]),IC50 (MOLM-13 cells; [5]),IC50 (MV4;11 cells; [6]),SMILES
< 10 nM,< 10 nM,< 10 nM,< 10 nM,,,"O=C1CCC(N2C(=O)c3ccc(NCCCCC(F)(F)C(=O)N4CCC(n5cc(-c6cnc7ccccc7n6)cn5)CC4)cc3C2=O)C(=O)N1 (stereo not drawn) [GS-520, 5-((5,5-difluoro-6-oxo-6-(4-(4-(quinoxalin-2-yl)-1H-pyrazol-1-yl)piperidin-1-yl)hexyl)amino)-2-(2,6-dioxopiperidin-3-yl)isoindoline-1,3-dione]"
< 10 nM,,< 10 nM,,< 10 nM,< 10 nM,"COc1cccnc1-c1cn([C@H]2C[C@H](CNc3ccc4c(c3)C(=O)N(C3CCC(=O)NC3=O)C4=O)C2)nc1C1CC1 (stereo partly drawn) [GS-262, 5-(((trans-3-(3-Cyclopropyl-4-(3-methoxypyridin-2-yl)-1H-pyrazol-1-yl)cyclobutyl)methyl)amino)-2-(2,6-dioxopiperidin-3-yl)isoindoline-1,3-dione]"
< 10 nM,< 10 nM,< 10 nM,< 10 nM,,,"O=C(Cc1cccc(N2CCN(c3ccccn3)CC2)c1)NCc1ccc2c(c1)CN(C1CCC(=O)NC1=O)C2=O (stereo not drawn) [GS-483, N-((2-(2,6-dioxopiperidin-3-yl)-1-oxoisoindolin-5-yl)methyl)-2-(3-(4-(pyridin-2-yl)piperazin-1-yl)phenyl)acetamide]"
100 to 1000 nM,100 to 1000 nM,100 to 1000 nM,100 to 1000 nM,,,"O=C1CCC(N2C(=O)c3ccc(NC[C@H]4C[C@H](n5cc(-c6cccc(N[C@H]7CC[C@@H](O)CC7)n6)c(C6CC6)n5)C4)cc3C2=O)C(=O)N1 (stereo partly drawn) [GS-445, 5-(((trans-3-(3-cyclopropyl-4-(6-((cis-4-hydroxycyclohexyl)amino)pyridin-2-yl)-1H-pyrazol-1-yl)cyclobutyl)methyl)amino)-2-(2,6-dioxopiperidin-3-yl)isoindoline-1,3-dione]"
10 to 100 nM,,10 to 100 nM,,< 10 nM,< 10 nM,"O=C1CCC(N2Cc3c(Nc4ccnc(Nc5cccc(N6CCN(c7ccccn7)CC6)c5)n4)cccc3C2=O)C(=O)N1 (stereo not drawn) [GS-076, 3-(1-Oxo-4-((2-((3-(4-(pyridin-2-yl)piperazin-1-yl)phenyl)amino)pyrimidin-4-yl)amino)isoindolin-2-yl)piperidine-2,6-dione]"
< 10 nM,,< 10 nM,,< 10 nM,< 10 nM,"O=C1CCC(N2Cc3c(csc3CNC(=O)Nc3cccc(N4CCC(n5cc(-c6cnc7ccccc7n6)cn5)CC4)c3)C2=O)C(=O)N1 (stereo not drawn) [GS-093, 1-((5-(2,6-Dioxopiperidin-3-yl)-4-oxo-5,6-dihydro-4H-thieno[3,4-c]pyrrol-1-yl)methyl)-3-(3-(4-(4-(quinoxalin-2-yl)-1H-pyrazol-1-yl)piperidin-1-yl)phenyl)urea]"
10 to 100 nM,,10 to 100 nM,,< 10 nM,< 10 nM,"O=C1CCC(N2Cc3c(Nc4ccnc(Nc5cccc(N6CCN(c7ncccn7)CC6)c5)n4)cccc3C2=O)C(=O)N1 (stereo not drawn) [GS-078, 3-(1-Oxo-4-((2-((3-(4-(pyrimidin-2-yl)piperazin-1-yl)phenyl)amino)pyrimidin-4-yl)amino)isoindolin-2-yl)piperidine-2,6-dione]"
> 1000 nM,100 to 1000 nM,100 to 1000 nM,100 to 1000 nM,,,"O=C1CCC(N2C(=O)c3ccc(NC[C@H]4C[C@H](n5cc(C6CC6)c(C6CC6)n5)C4)cc3C2=O)C(=O)N1 (stereo partly drawn) [GS-632, 5-(((trans-3-(3,4-Dicyclopropyl-1H-pyrazol-1-yl)cyclobutyl)methyl)amino)-2-(2,6-dioxopiperidin-3-yl)isoindoline-1,3-dione]"
10 to 100 nM,< 10 nM,10 to 100 nM,< 10 nM,,,"O=C1CCC(N2C(=O)c3ccc(NCCCCCCn4cc(-c5cnc6ccc(C7CCOCC7)cc6n5)cn4)cc3C2=O)C(=O)N1 (stereo not drawn) [GS-542, 2-(2,6-Dioxopiperidin-3-yl)-5-((6-(4-(7-(tetrahydro-2H-pyran-4-yl)quinoxalin-2-yl)-1H-pyrazol-1-yl)hexyl)amino)isoindoline-1,3-dione]"
